Test results taken from patent publication US11331290B2, “Niclosamide for the treatment of cancer metastasis” (Max-Delbrück-Centrum für Molekulare Medizin in der …, priority 2011, dated 2022).

Assays:
SW620 cells [1] = experiment: Boyden chamber invasion assay (Matrigel); format: cell-based, human; settings: 1 μM, 24 h
Experimental: (§1) HCT116, SW620, LS174T, SW480 and DLD-1 cells were used in cell migration and invasion analysis performed with Boyden chamber assay. 400 μL containing 2.5×10^5 cells were seeded into each transwell chamber with filter membranes of 12.0 μm pore size (Millipore, Schwalbach, Germany). For invasion filter membranes were coated with 50 μL Matrigel (diluted 1:3 in RPMI-1640; BD Biosciences) 10 minutes before cells were seeded. Fresh medium (600 μL) were added to the bottom chamber and cells were allowed to attach to the insets for 15 hours. Both chambers were treated with 1 μM niclosamide or the respective amount of DMSO and incubated at 37° C. and 5% CO2 in a humidified incubator for 24 hours. Afterwards insets were removed and cells that had migrated through the membrane to the lower chamber were trypsinized and counted in a Neubauer chamber (LO-Laboroptik, Bad Homburg, Germany). Each well was counted ten times. Each migration or invasion experiment was performed in duplicate. The average number of migrated or invaded cells was determined for at least three independent experiments.
(§2) (A) S100A4 expression under niclosamide treatment. Cells were treated with 1 μM niclosamide for 24 hours. S100A4 expression was analyzed with qRT-PCR and immunoblot. (B) Cell migration under niclosamide treatment. Migration rates of cells treated with 1 μM niclosamide for 24 hours were determined in a Boyden chamber assay values were normalized to solvent-treated SW620 cells. (C) Cell invasion under niclosamide treatment. Cells were seeded onto Matrigel covered transwells and treated with 1 μM niclosamide for 24 hours. Invaded cells in the lower chamber were counted and normalized to solvent-treated SW620 cells. Differences in solvent vs. niclosamide-treated cells were analyzed by Student's t test. Data represent mean±SE of at least two independent experiments each performed in triplicate. (D) Directed migration under niclosamide treatment. Wounds of 300 μM width were set in a 60% confluent monolayer of cells on day 1. Cells were treated daily with 1 μM niclosamide for 4 days. Microphotographs of day 4 are presented here with black lines indicating margins of the wound on day 1; scale bar represents 200 μM. Directed migration data shown are representatives of three independent experiments. (E) Adhesive cell proliferation under niclosamide treatment. Cells were treated daily with 1 μM niclosamide. The amount of viable cells per well was determined by MTT assay. (F) Anchorage-independent cell growth under niclosamide treatment. Cells were plated as single cells into 0.33% (w/v) agarose and treatment (solvent or 1 μM niclosamide) containing medium. After 7 days colonies were visualized by light microscopy at 10× (overview) and 40× (single colony) magnification. (G) Quantification of colonies formed. Number of colonies (of more than 4 cells) was counted and normalized to solvent-treated SW620 cells. Differences in solvent vs. niclosamide-treated cells were analyzed by Student's t test. Data represent mean mean±SE of at least two independent experiments each performed in duplicates.

DLD-1 cells [2] = experiment: Boyden chamber invasion assay (Matrigel); format: cell-based, human; settings: 1 μM, 24 h
Experimental: as §1, §2

LS174T cells [3] = experiment: Boyden chamber invasion assay (Matrigel); format: cell-based, human; settings: 1 μM, 24 h
Experimental: as §1, §2

SW480 cells [4] = experiment: Boyden chamber invasion assay (Matrigel); format: cell-based, human; settings: 1 μM, 24 h
Experimental: as §1, §2

SW620 cells [5] = experiment: Soft agar colony formation assay; format: cell-based, human; settings: 1 μM, 7 days
Experimental: (§3) Analysis of anchorage-independent cell proliferation was achieved by soft agar colony formation assay. A bottom layer containing 0.5% w/v agarose, RPMI-1640 medium, 10% FBS and 1 μM niclosamide or the respective amount of DMSO was added to a 6 cm Ø dish and incubated at room temperature under sterile conditions for 10 minutes. Onto the solidified bottom layer a top layer was added containing 8×10^3 cells, 0.33% w/v agarose, RPMI-1640 medium, 10% FBS and 1 μM niclosamide or the respective amount of DMSO. Cells were seeded as single cells into the soft agar and incubated in a humidified incubator at 37° C. and 5% CO2 for 7 days. Colony formation was visualized by 10× magnification for an overview and 40× magnification for single colonies in the Leica DM IL light microscope (Leica Microsystems). Colony quantification was achieved by counting cell colonies of more than 4 cells in 10 squares of […]. Colony formation experiments were repeated twice, each in triplicates.
as §2

DLD-1 cells [6] = experiment: Soft agar colony formation assay; format: cell-based, human; settings: 1 μM, 7 days
Experimental: as §3, §2

LS174T cells [7] = experiment: Soft agar colony formation assay; format: cell-based, human; settings: 1 μM, 7 days
Experimental: as §3, §2

SW480 cells [8] = experiment: Soft agar colony formation assay; format: cell-based, human; settings: 1 μM, 7 days
Experimental: as §3, §2

HCT116 cells = experiment: Cytotoxicity (cell viability) of niclosamide; format: cell-based; settings: Homo sapiens, HCT-116, 24 h, 95% CI 1.87 to 2.92 μM
Experimental: To determine an applicable niclosamide concentration, the cytotoxicity of niclosamide on HCT116 cells was analyzed. […] No change in S100A4 expression could be detected with concentrations below 1 μM niclosamide.
All calculations and statistical analyses were performed with GraphPad Prism version 4.01. Student t test was used for comparison of only two groups. One-way analysis of variance (ANOVA) was applied for comparing the control group with several treated groups followed by Bonferroni post hoc multiple comparisons. […] Kaplan-Meier analysis was used to plot overall survival and differences in curves were analyzed by Logrank test. […]
(A) Determination of the cytotoxicity of niclosamide on HCT116 cells. Cells were treated with increasing concentrations of niclosamide for 24 hours and cell viability was measured. […] S100A4 expression was determined by quantitative reverse-transcription-polymerase chain reaction (qRT-PCR) and immunoblot. […] HCT116 cells were treated with a single dose of 1 μM niclosamide for 24 hours and S100A4 expression was analyzed by qRT-PCR and immunoblot at indicated time points. […] HCT116 cells were treated daily with 1 μM niclosamide and S100A4 expression was analyzed by qRT-PCR and immunoblot. […]

Q: With `O=C(Nc1ccc([N+](=O)[O-])cc1Cl)c1cc(Cl)ccc1O` [niclosamide, 2′,5-dichloro-4′-nitrosalicylanilide] as the molecule, how does the “invasion, mean difference control vs niclosamide” value (from here on “invasion, mean difference control”) (SW620 cells [1]) read?
A: 74.9%

Q: And the “cell invasion, mean % (normalized to solvent-treated SW620 cells)” value (SW620 cells [1]; solvent control 100.0%)?
A: 25.1%

Q: What about the invasion rate (DLD-1 cells [2]) of the same molecule?
A: not affected

Q: What about the “invasion, mean difference control” value (LS174T cells [3]) of the same molecule?
A: 39.5%

Q: And the “cell invasion, mean % (normalized to solvent-treated SW620 cells)” value (LS174T cells [3]; solvent control 63.2%)?
A: 23.6%

Q: And the “invasion, mean difference control” value (SW480 cells [4])?
A: 34.9%

Q: What about the “cell invasion, mean % (normalized to solvent-treated SW620 cells)” value (SW480 cells [4]; solvent control 47.7%) of the same molecule?
A: 12.8%

Q: And the “anchorage-independent growth, colony size” value (“anchorage-independent growth” below) (SW620 cells [5])?
A: clearly smaller cell colonies

Q: What about the “number of colonies, mean difference control vs niclosamide” value (SW620 cells [5]) of the same molecule?
A: 96.4%

Q: What about the “number of colonies, mean % (normalized to solvent-treated SW620 cells)” value (SW620 cells [5]; solvent control 100.0%) of the same molecule?
A: 3.6%

Q: And the “anchorage-independent growth” value (DLD-1 cells [6])?
A: clearly smaller cell colonies

Q: What about the “number of colonies, mean difference control vs niclosamide” value (DLD-1 cells [6]) of the same molecule?
A: 72.5%

Q: What about the “number of colonies, mean % (normalized to solvent-treated SW620 cells)” value (DLD-1 cells [6]; solvent control 82.6%) of the same molecule?
A: 10.1%

Q: And the “anchorage-independent growth” value (LS174T cells [7])?
A: clearly smaller cell colonies

Q: And the “number of colonies, mean difference control vs niclosamide” value (LS174T cells [7])?
A: 74.6%

Q: And the “number of colonies, mean % (normalized to solvent-treated SW620 cells)” value (LS174T cells [7]; solvent control 90.6%)?
A: 15.9%

Q: What about the “anchorage-independent growth” value (SW480 cells [8]) of the same molecule?
A: clearly smaller cell colonies

Q: And the “number of colonies, mean difference control vs niclosamide” value (SW480 cells [8])?
A: 63.8%

Q: What about the “number of colonies, mean % (normalized to solvent-treated SW620 cells)” value (SW480 cells [8]; solvent control 68.1%) of the same molecule?
A: 4.3%

Q: And the EC50 (HCT116 cells)?
A: 2200 nM
